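All cell lines were grown in 96-well plates and treated with compound for 48 hours. Here, GI50 denotes the concentration required for 50% inhibition of growth. Definition used: TGI = concentration required for complete inhibition of growth.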

Holding throughout (assay): NCI-60 cell line screen, 48 h
For assay [1], the system named is A549 NSCLC.
Assay [2] deals with SF-268 CNS.
In assay [3] the test system is OVCAR-4 ovarian.
Assay [4] deals with EKVX NSCLC.
Assay [5] has as its system NCI-H226 lung.
Assay [6] relates to HOP-92 NSCLC.
In assay [7] the test system is SK-MEL-28 melanoma.
Assay [8] concerns HOP-62 NSCLC.
Assay [9] concerns NCI-H23 lung.

Turning to `Cc1ccc(Sc2ccccc2[N+](=O)[O-])cc1`, the TGI is over 100 µM in [1]; over 100 µM in [2]; over 100 µM in assay [3]; over 100 µM in assay [4]; 71.2 µM in assay [5]; 59.2 µM in [6]. Moreover, the TGI in assay [7] is 60 µM; in [8], over 100 µM; in assay [9], 78.2 µM.

On to `CNc1ccc2ncccc2c1[N+](=O)[O-]`, for which the TGI in assay [1], in [2], in [3], in assay [4], in assay [5] and in [6] was over 100 µM in each case. In addition, the TGI in assay [7], in assay [8] and in assay [9] was over 100 µM throughout.

`COC(=O)[C@@](C)(COC(=O)C(C)(C)C)NC(=O)OC(C)(C)C`: the TGI in assay [1], in assay [2], in assay [3], in assay [4], in [5] and in assay [7] was over 100 µM in each case. Besides, the TGI in [8] and in [9] was over 100 µM throughout.

Consider `CCC(COC(=O)CC[C@@H](NC(=O)C(C)NC(=O)C(C)OC1C(O)C(CO)OC(OCc2ccccc2)C1NC(C)=O)C(N)=O)NC1c2ccccc2Nc2cccc([N+](=O)[O-])c21` (stereo partly specified), for which the TGI in [1], in assay [2], in assay [3], in assay [4], in [5] and in assay [6] was over 100 µM each time. Further, the TGI in assay [7], in [8] and in assay [9] was over 100 µM in each case.

As to `CN(C)CCNC(=O)c1cccc2cc3cc(O)ccc3nc12`, the TGI in assay [1] was 3.47 µM; in [2] it was 5.66 µM; in [3], 6.58 µM; in assay [4], 5.24 µM; in [5], 2.48 µM; in assay [6], 3.81 µM. The TGI in assay [7] was 4.65 µM; in assay [8], 2.94 µM; in [9], 3.24 µM.

For `CC(C)OP(=O)(OC(C)C)C1=NN(c2ccc([N+](=O)[O-])cc2)C(P(=O)(OC(C)C)OC(C)C)=NN1c1ccc([N+](=O)[O-])cc1`, the TGI in assay [1], in [2], in assay [3], in assay [4], in assay [5] and in assay [6] was over 100 µM each time. Also, the TGI in assay [7], in assay [8] and in assay [9] was over 100 µM throughout.

Turning to `CCCc1c(C(=O)OCC)[nH]c(-c2ccc(-c3[nH]c(C(=O)OCC)c(CCC)c3C(=O)OCC)s2)c1C(=O)OCC`, the TGI was over 100 µM in assay [1]; over 100 µM in assay [2]; over 100 µM in assay [3]; over 100 µM in assay [4]; over 100 µM in assay [5]; 85.2 µM in [6]. For the same molecule, the TGI in [7] and in [9] was over 100 µM throughout.

Consider `C=C(C)C1CC/C(C)=C/CC[C@]2(C)O[C@@H]2CCC2=CC1OC2=O` (stereo partly specified), for which the GI50 is 23.4 µM in assay [1]; over 100 µM in assay [2]; over 100 µM in assay [3]; over 100 µM in assay [5]; 14.4 µM in assay [6]; over 100 µM in assay [7]. For the same molecule, the GI50 in [8] is over 100 µM; in [9], 36.8 µM. For the same molecule, the TGI in assay [1], in assay [2], in [3], in [5], in assay [6] and in assay [7] was over 100 µM each time. Moreover, the TGI in [8] and in [9] was over 100 µM each time.

As for `CC(=O)NC(CCCCN)C(=O)NCc1ccccc1` (stereo unspecified), the TGI in assay [1], in assay [2], in [3], in assay [4], in assay [5] and in assay [6] was over 100 µM each time. The TGI in assay [7], in assay [8] and in assay [9] was over 100 µM each time.

On to `COC(=O)CC(C(C(=O)OCc1ccccc1)C(C)O)N1C(=O)OC(c2ccccc2)C1c1ccccc1` (stereo unspecified), for which the TGI in assay [1], in [2], in [3], in [4], in assay [5] and in [7] was over 100 µM in each case. For the same molecule, the TGI in assay [8] and in assay [9] was over 100 µM throughout.

As for `CC1(C)C2CCC3(OCCO3)C1C(O)C2` (stereo unspecified), the TGI in [1], in assay [2], in [3], in assay [4], in assay [5] and in assay [6] was over 100 µM in each case. Also, the TGI in assay [7], in assay [8] and in [9] was over 100 µM in each case.

For `N#C/C(=C\c1cccc(O)c1O)C(N)=O`, the TGI is over 100 µM in [1]; over 100 µM in [2]; over 100 µM in assay [3]; over 100 µM in assay [4]; 88 µM in assay [5]; over 100 µM in assay [6]. Further, the TGI in assay [7], in assay [8] and in [9] was over 100 µM each time.

Take `COc1ccc2c(c1)OCCc1cn[nH]c1-2`: the TGI in assay [1] is over 100 µM; in [2], over 100 µM; in [3] it was over 100 µM; in [4] it was 12.3 µM; in [6], 61.6 µM; in assay [7] it was over 100 µM. Moreover, the TGI in assay [8] and in assay [9] was over 100 µM each time.

Turning to `CCSCN(C)c1nc(N(C)C)nc(N(C)C)n1`, the TGI in assay [1], in assay [2], in assay [3], in assay [4], in [6] and in assay [7] was over 100 µM each time. Further, the TGI in assay [8] and in assay [9] was over 100 µM in each case.

Take `O=C1C[C@@H]2[C@@H](CCC23CC3)N1`: the TGI in [1], in [2], in [3], in [4], in assay [5] and in assay [7] was over 100 µM throughout. Further, the TGI in assay [8] and in assay [9] was over 100 µM in each case.

The values are drawn from PubChem BioAssay (NCI).
